These results are taken from patent US20230028293A1, “MULTIPLE MYELOMA COMBINATION THERAPIES BASED ON PROTEIN TRANSLATION INHIBITORS AND IMMUNOMODULATORS” (The Regents of the University of Colorado, a body corporate, priority 2019, published 2023).

The subject of test [1] is U266, H929, MM1.S, MM1.R and RPMI-8226 MM cell lines. The test can be described thus: MM cell line proliferation / cytotoxicity assay (CellTiter-Glo or MTS). Format: cell-based. The following applies: range over five MM cell lines, 96 h incubation; read-out: EC50 of inhibition of cell proliferation. As to the method: Omacetaxine was tested in MM cell lines in vitro and in MM patient bone marrow aspirates ex vivo. The reported cytotoxicity of omacetaxine was verified in cell culture using the U266, H929, MM1.S, MM1.R and RPMI-8226 MM cell lines. […] In a timecourse study, omacetaxine-mediated induction of apoptosis started at 2 h, and cell death began after 24 h (FIGS. 1B, 1C, and 2A).
(§1) Either CellTiter-Glo Luminescent Cell Viability or CellTiter 96 AQueous MTS Cell Proliferation assay (Promega, Madison Wis.) were used to generate dose response curves of myeloma cell line proliferation treated with various anti-myeloma agents. Working solutions of CellTiter-Glo or CellTiter AQueous reagent were prepared per manufacturer instructions. Cells were combined with drug of interest at a concentration of 50,000 cells/well and incubated in 96-well culture plates at 37° C. for 96 h. After the incubation, the viability or proliferation results were obtained via Vmax Kinetic Microplate Reader (Molecular Devices, Sunnyvale Calif.). Cell line toxicity was also measured using high throughput flow cytometry.

A further test relates to MCL1. The test can be described thus: Quantitative intracellular flow cytometry of MCL1. Format: cell-based. Particulars: 50 nM, 6 h. The procedure: Quantitative flow cytometry was used to measure MCL1 and BCL2 densities per cell. Anti-MCL1 and anti-BCL2 antibodies were labeled with Alexa Fluor 647 (Molecular Probes/life Technologies) according to manufacturer's instructions. Intracellular staining of MCL1 and BCL2 was conducted following permeabilization with the Cytofix/Cytoperm kit (BD). Mean fluorescence intensity was converted to molecules of equivalent soluble fluorochrome (MESF) by generating a standard curve with Quantum™ beads (Bangs Labs, Fishers, Ind.). The fluorophore-to-antibody ratio of the labeled antibodies was determined using Simply Cellular® anti-mouse IgG beads (Bangs Labs). Finally, conversion of MESF to cell surface antigen density was calculated by dividing by the fluorophore-to-antibody ratio.

The subject of another test is MM cell lines. The test can be described thus: Two-drug combination matrix in MM cell lines, ZIP synergy. Format: cell-based. As to the method:
In this example, possible candidates for use in combination with omacetaxine were examined, focusing on those that are currently clinically available. Omacetaxine was applies in combination with various anti-myeloma agents to MM cell lines Amo-1, L363, and U266 in two-drug combination matrices, with cell viability being measured after 96 h incubation. […] The […] for synergy of omacetaxine with Len and Pom were 13.89 and 11.24, respectively, with a broad range of concentrations showing a productive interaction (FIGS. 6B and 6D).
as §1
(§2) Drug combination studies were set up using a full matrix design with myeloma cell lines or primary samples. Synergy was calculated using ZIP delta score via the SnergyFinder online tool (synergyfinder.fimm.fi). Combination index values were calculated using the CompuSyn software (ComboSyn Inc).

The subject of test [2] is IMiD-resistant relapsed MM patient sample. The test can be described thus: Two-drug combination matrix in primary MM patient sample, ZIP synergy. Format: cell-based, human. The procedure: as §2
Test [3] deals with luc-MM1.S cells in NSG mice. The test can be described thus: In vivo protein translation (puromycin incorporation) in luc-MM1.S xenograft. Particulars: 1, 2 or 3 mg/kg IP; greatest effect at 3 mg/kg. The procedure: To extend the findings to an in vivo model, the effects of omacetaxine were examined using a firefly luciferase-expressing myeloma cell line, MM1.S (luc-MM1.S) to generate xenografts in NSG mice. The pharmacodynamics of omacetaxine were studied in this model. Mice were injected with luc-MM1.S cells and allowed to establish disease, followed by treatment with 1, 2, or 3 mg/kg omacetaxine, or with the vehicle control by intraperitoneal (IP) injection, followed by puromycin injection one hour later, and sacrificed 1.5 hours later, with bone marrow harvest and […] incorporation by flow cytometry (FIG. 9A).
Protein synthesis levels were determined in vitro utilizing the puromycin analog O-propargyl-puromycin (OP-Puro) in the protein synthesis assay kit (Cayman Chemical) according to manufacturer instructions. […]
For in vivo assessment of omacetaxine, 5×10^5 MM1.S cells stably expressing firefly luciferase were injected intravenously into NSG mice (Jackson Labs, Bar Harbor, Me.) to generate an orthometastatic MM xenograft model. […] Tumor status was assessed by BLI, and the results were analyzed by Living Image (PerkinElmer). Following treatment, the mice were continuously monitored for survival endpoints.

The test system of another test is MM1.S cells. The test can be described thus: Whole cell proteomics of treated MM cells. The following applies: omacetaxine 4 h, pomalidomide 24 h, staggered combination. Format: cell-based. As to the method: Whole cell proteomics of MM cells treated with the omacetaxine/pomalidomide combination were compared to single agent treatments at a timepoint before substantial apoptosis or cell death began. Although omacetaxine is rapidly cytotoxic to MM cells, the cytotoxicity of pomalidomide occurs after a longer delay, with apoptosis and cell death beginning at 24 h (FIG. 10A). […] For proteomics, MM1.S cells were treated in triplicate with omacetaxine for 4 h, pomalidomide for 24 h, or the staggered combination treatment and compared to untreated controls.
Cells were lysed with RIPA buffer (Thermo Fisher Scientific) and digested according to the FASP protocol. Recovered peptides were dried, desalted, and concentrated on Thermo Scientific Pierce C18 Tips. Cell lysates were analyzed using an Orbitrap Fusion mass spectrometer connected to an EASY-nLC 1200 system (Thermo Fisher Scientific) with a nanoelectrospray ion source. Data was acquired using the Xcaliburm (version 4.1) software. MS/MS spectra were extracted, and Proteome Discoverer Software (ver. 2.1.0.62) was used to convert the raw data into mgf files. The files were then searched against a human database using an in-house Mascot server (Version 2.6, Matrix Science). Scaffold (version 4.8, Proteome Software, Portland, Oreg.) was used to validate MS/MS based peptide and protein identifications. […]

Where “and” joins values, the source holds several entries; their conditions need not be identical. Equal entries are not always repeated.

Consider `COC(=O)C[C@](O)(CCCC(C)(C)O)C(=O)O[C@@H]1C(OC)=C[C@]23CCCN2CCc2cc4c(cc2[C@H]13)OCO4` [omacetaxine, Omacetaxine mepesuccinate], for which, in test [1], the EC50 was in the range of 15 to 35 nM. In addition, the “MCL1 expression in myeloma cells” value in the test with MCL1 is recorded as “rapidly downregulated”. In the test with MM cell lines (L363 and U266 cells), the “combination with dexamethasone versus single agent omacetaxine” value is “decreased activity”. Besides, the “synergy with lenalidomide (cell viability)” value with MM cell lines (combination with Len, 96 h) was “synergistic in all cell lines tested”. For the same compound, in the test with MM cell lines (omacetaxine combined with Pom, 96 h), the “synergy with pomalidomide (cell viability)” value is “synergistic in all cell lines tested”. Further, the “synergy with dexamethasone, over cell lines tested” value in the test with MM cell lines (three MM cell lines) is “synergistic in only ⅓ MM cell lines tested”. In addition, the “effect of combination with Pom on IMiD sensitivity of patient MM cells” value in test [2] (IMiD-resistant relapsed patient sample) was “re-sensitized”. Further, the “ZIP δ-score for synergy with Pom in patient sample” value in test [2] (IMiD-resistant relapsed patient sample HTB-576) was 22.68 and 22.7. In addition, in test [3], the “protein translation rate in luc-MM1.S cells in vivo” value is “dose-dependent decrease”. Further, in the test with MM1.S cells, the “proteins among the most downregulated versus untreated controls” value is “IGL1 and JCHAIN”.
